Tests used:
[1] = Cytotoxicity assay in human cells (WST-1); assay type: cell-based; conditions: HUVEC, 24 h exposure, WST-1 absorbance after 4h and 24h, read-out: concentrations at which not cytotoxic
Procedure: Example 4.Cytotoxicity assays in human cells. Cytotoxicity of costic acid was measured in human umbilical vein endothelial cells (HUVEC), using the Cell Proliferation Reagent WST-1 (Cat. No. 13396300, Roche). The assay was performed according to the instructions protocol. Cells (7500 per well) were exposed to different concentrations of costic acid for 24 h before adding the WST-1 reagent. After 4h and again after 24h the absorbance was measured using an Optimax UV/VIS spectrometer (wavelengths: 440nm and 650nm). Costic acid was not cytotoxic at concentrations up to 230 micromolar.

V. destructor = test: In vivo vial experiments with V. destructor: mite mortality on exposure to treated filter paper; set-up: species or system Varroa destructor
Procedure: In vivo Experiments with V. destructor. The mites (V. destructor) were collected from colonies of A. mellifera. For mite collection two different methods were used: The first method involved removal of the mites from infected adult bees using a soft brush with the help of a stereoscope. In method b) infected adult honeybees were transferred directly from bee frames into a wire-screen cylinder. Then the cylinder was placed inside a second Plexiglas cylinder and CO2 was released for 5 min with a flow rate of 5 l/min causing anaesthesia to the mites (as well as to the bees). The whole apparatus was then shaken several times to separate the mites from the bees. In a few minutes they had recovered from the effect of the anaesthesia.^39
Using a stereoscope binocular set varroa was placed in 20 mL glass vials. Stock solutions of the extraction materials were prepared in acetone in 10 mg/mL concentrations. In each experiment 20, 60, or 100 microliter aliquots of the stock solution were placed on filter paper adjusted to the cups of 20 ml vials, each containing five living mites. Acetone was used in the control experiments which were performed in five replicates. In both cases the solvent was allowed to evaporate before covering the vials. The vials were kept in an incubator at 37 C. Mortality of mites was recorded under a stereoscope binocular set after 5, 8, 12, and 19 hours.

varroa = test: Field tests on bee populations: count of dead varroa after spraying; assay type: in vivo, Varroa destructor; conditions: after ten days; commercial acaricides; sprayed directly on the bees (100 mL per group, oxalic acid 70 mL)
Procedure: Example 5. Field Tests on bee populations. Field test were conducted using 40 bees on each trial at various locations on the island of Crete such as the Lassithi Plateau and the Messara Plains. In the field tests, Group B' extract was used in a solution of 1 g of this extract in 1 ml ethanol that was further diluted with water to a total volume of 1 L. A second solution was prepared as described above, using 2 g of Group B' mixture. For comparison purposes, each bee population was divided in […] groups. Two of these groups were treated with commercial acaricides A fifth, control group, was sprayed with deionized water. As known acaricide preparations were used a) BAYVAROL (active ingredient: Flumethrine) and b) a 4% solution of oxalic acid in 50% sugar solution. The total volume of solutions that were sprayed directly on the bees was 100 mL per group. In the case of the oxalic acid solution, the volume was 70 mL. Dead varroa was collected on a sheet of paper covered with Vaseline and sunflower oil. After ten days, the number of dead varroa was counted. Considering the number of dead varroa in the oxalic acid experiment as 100%, the respective numbers were 60% for either extract preparation, 55% for BAYVAROL and 8% for the control.

Row | SMILES | MNTC at 24 h [1] | optimal concentration of the stock solution (V. destructor; 10 mg/mL stock solution in acetone, higher concentrations did not enhance activity) | percent mortality of varroa (V. destructor; Fig. 1, 20 or 60 or 100 microliters of 10mg/mL acetone solutions) | time after application of the largest activity difference between costic acid and total extract (V. destructor; Fig. 2, activity as a function of time of application) | acaricidal activity (V. destructor; in vivo vial experiments, fractions and isolated components of D. viscosa extract) | number of dead varroa, oxalic acid experiment as 100% (varroa)
1 | C=C(C(=O)O)C1CCC2(C)CCCC(=C)C2C1 (stereo not drawn) [costic acid] | ≥ 230 µM | 60 microliter per vial | increases drastically | 8 h | acaricidal activity rested in costic acid | 
2 | O=C(O)C(=O)O [oxalic acid] |  |  |  |  |  | 100%

— patent publication EP2346328B1, “USE OF COSTIC ACID OR EXTRACTS OF DITTRICHIA VISCOSA AGAINST VARROA DESTRUCTOR” (Katerinopoulos, E. Haralambos, priority 2008, dated 2009)
